# Test results from ChEMBL document CHEMBL1201862, “PubChem BioAssay data set” (2004).
# Calls of active or inactive are those of the source.
# What was measured:
# [1] = target: T1, High affinity choline transporter 1 (Homo sapiens, UniProt Q9GZV3); test: CHT activators, dose response, cell-based, 10-point CRC, membrane potential dye (AID 602376); assay type: functional
# T1 sequence (Q9GZV3 whole entry): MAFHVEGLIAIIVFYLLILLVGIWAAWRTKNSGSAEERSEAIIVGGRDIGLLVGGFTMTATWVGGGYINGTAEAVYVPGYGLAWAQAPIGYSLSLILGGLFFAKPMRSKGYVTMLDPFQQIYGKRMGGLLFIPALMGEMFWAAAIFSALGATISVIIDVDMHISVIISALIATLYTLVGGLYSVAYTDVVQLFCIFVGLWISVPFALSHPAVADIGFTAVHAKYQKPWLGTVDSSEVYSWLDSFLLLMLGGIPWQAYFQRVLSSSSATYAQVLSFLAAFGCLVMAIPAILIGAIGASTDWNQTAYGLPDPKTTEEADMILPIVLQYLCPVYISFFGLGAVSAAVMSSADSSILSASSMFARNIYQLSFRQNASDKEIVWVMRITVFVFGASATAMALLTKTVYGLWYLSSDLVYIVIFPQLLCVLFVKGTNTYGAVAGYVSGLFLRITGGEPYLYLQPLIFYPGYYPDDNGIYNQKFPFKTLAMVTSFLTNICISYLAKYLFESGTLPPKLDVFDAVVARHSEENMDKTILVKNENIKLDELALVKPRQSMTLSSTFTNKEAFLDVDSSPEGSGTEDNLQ
# Aspartyl aminopeptidase = Aspartyl aminopeptidase (Plasmodium falciparum 3D7, UniProt Q8I2J3)
# [2] = target: Multidrug resistance protein CDR1 (Candida albicans, UniProt P43071); test: CaCDR1 efflux pump inhibitors in yeast, dose response, S. cerevisiae AD1-8u, singleplex, Cherry Pick1 hits (AID 588606); assay type: functional
# Procathepsin L = Procathepsin L (Homo sapiens, UniProt P07711)
# Sequence of Procathepsin L (P07711 whole entry): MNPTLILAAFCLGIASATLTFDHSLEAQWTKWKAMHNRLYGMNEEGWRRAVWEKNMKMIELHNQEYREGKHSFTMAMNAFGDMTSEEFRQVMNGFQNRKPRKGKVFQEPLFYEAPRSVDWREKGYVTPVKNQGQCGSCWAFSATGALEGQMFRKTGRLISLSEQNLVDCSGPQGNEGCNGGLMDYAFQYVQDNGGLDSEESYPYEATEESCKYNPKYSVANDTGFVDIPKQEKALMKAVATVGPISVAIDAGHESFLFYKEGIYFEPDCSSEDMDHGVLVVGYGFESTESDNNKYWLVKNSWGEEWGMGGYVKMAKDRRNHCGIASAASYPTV
# [3] = target: Dual specificity tyrosine-phosphorylation-regulated kinase 1B (Homo sapiens, UniProt Q9Y463); test: Navigating the Kinome. Panel member name: DYRK1B; assay type: functional
# Sequence of Dual specificity tyrosine-phosphorylation-regulated kinase 1B (Q9Y463 whole entry): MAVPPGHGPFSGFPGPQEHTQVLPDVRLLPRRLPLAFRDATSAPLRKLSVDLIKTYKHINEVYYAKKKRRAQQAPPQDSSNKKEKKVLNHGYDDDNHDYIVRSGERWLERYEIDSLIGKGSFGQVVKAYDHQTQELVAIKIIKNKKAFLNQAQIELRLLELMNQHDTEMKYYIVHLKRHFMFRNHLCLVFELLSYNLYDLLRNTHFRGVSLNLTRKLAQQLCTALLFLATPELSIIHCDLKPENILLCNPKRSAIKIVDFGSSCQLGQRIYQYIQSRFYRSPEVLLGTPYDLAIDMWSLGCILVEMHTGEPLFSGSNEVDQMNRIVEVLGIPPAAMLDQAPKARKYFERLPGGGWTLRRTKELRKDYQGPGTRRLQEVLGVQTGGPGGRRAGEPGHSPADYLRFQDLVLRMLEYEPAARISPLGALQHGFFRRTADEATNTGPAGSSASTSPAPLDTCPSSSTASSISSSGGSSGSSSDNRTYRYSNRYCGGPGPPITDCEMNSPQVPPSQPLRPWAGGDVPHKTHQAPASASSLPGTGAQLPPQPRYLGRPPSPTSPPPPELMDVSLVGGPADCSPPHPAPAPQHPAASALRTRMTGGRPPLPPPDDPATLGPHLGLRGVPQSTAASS
# [4] = target: Tyrosine-protein kinase receptor TYRO3 (Homo sapiens, UniProt Q06418); assay type: functional;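 further: TYRO3 value obtained as one member of a kinome-wide profiling panel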
# [5] = target: Casein kinase I isoform alpha (Homo sapiens, UniProt P48729); assay type: functional
# [6] = target: Glycogen synthase kinase-3 beta (Homo sapiens, UniProt P49841); assay type: functional;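 further: value comes from a broad kinome profiling panel, with GSK3B as the panel member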
# Sequence of Glycogen synthase kinase-3 beta (P49841 whole entry): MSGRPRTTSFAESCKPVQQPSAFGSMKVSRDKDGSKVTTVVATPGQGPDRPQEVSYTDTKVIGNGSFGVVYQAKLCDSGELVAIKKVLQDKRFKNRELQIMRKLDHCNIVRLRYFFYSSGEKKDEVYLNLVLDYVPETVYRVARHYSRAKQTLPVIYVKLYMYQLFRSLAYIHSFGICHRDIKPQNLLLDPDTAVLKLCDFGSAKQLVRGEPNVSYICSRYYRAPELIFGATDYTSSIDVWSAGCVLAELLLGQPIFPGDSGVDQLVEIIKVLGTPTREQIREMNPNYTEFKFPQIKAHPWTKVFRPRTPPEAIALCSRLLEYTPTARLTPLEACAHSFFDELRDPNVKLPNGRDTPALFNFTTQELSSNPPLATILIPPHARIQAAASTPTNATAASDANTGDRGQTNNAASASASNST
# [7] = target: Cyclin-dependent kinase 2 (Homo sapiens, UniProt P24941); assay type: functional;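 further: CDK2 measured as one member of a broad kinome profiling panel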
# [8] = target: Serine/threonine-protein kinase pim-1 (Homo sapiens, UniProt P11309); assay type: functional
# Sequence of Serine/threonine-protein kinase pim-1 (P11309 whole entry): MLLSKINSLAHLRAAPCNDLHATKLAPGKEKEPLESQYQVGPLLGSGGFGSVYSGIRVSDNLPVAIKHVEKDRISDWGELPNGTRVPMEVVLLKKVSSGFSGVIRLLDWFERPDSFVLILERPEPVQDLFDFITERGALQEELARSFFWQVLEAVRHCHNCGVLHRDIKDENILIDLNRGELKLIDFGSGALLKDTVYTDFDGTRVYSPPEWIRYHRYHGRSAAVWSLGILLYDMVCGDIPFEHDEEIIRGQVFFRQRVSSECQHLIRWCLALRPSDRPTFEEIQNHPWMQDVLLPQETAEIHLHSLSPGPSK
# [9] = target: Homeodomain-interacting protein kinase 2 (Homo sapiens, UniProt Q9H2X6); assay type: functional;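 further: measured within a kinome-wide kinase profiling panel, HIPK2 being one panel member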
# [10] = target: Cell division cycle 7-related protein kinase (Homo sapiens, UniProt O00311); assay type: functional;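 further: value obtained from a kinome-wide kinase panel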
# [11] = target: Interleukin-1 receptor-associated kinase 4 (Homo sapiens, UniProt Q9NWZ3); assay type: functional
# [12] = target: Mitogen-activated protein kinase kinase kinase kinase 4 (Homo sapiens, UniProt O95819); assay type: functional
# Sequence of Mitogen-activated protein kinase kinase kinase kinase 4 (O95819 whole entry): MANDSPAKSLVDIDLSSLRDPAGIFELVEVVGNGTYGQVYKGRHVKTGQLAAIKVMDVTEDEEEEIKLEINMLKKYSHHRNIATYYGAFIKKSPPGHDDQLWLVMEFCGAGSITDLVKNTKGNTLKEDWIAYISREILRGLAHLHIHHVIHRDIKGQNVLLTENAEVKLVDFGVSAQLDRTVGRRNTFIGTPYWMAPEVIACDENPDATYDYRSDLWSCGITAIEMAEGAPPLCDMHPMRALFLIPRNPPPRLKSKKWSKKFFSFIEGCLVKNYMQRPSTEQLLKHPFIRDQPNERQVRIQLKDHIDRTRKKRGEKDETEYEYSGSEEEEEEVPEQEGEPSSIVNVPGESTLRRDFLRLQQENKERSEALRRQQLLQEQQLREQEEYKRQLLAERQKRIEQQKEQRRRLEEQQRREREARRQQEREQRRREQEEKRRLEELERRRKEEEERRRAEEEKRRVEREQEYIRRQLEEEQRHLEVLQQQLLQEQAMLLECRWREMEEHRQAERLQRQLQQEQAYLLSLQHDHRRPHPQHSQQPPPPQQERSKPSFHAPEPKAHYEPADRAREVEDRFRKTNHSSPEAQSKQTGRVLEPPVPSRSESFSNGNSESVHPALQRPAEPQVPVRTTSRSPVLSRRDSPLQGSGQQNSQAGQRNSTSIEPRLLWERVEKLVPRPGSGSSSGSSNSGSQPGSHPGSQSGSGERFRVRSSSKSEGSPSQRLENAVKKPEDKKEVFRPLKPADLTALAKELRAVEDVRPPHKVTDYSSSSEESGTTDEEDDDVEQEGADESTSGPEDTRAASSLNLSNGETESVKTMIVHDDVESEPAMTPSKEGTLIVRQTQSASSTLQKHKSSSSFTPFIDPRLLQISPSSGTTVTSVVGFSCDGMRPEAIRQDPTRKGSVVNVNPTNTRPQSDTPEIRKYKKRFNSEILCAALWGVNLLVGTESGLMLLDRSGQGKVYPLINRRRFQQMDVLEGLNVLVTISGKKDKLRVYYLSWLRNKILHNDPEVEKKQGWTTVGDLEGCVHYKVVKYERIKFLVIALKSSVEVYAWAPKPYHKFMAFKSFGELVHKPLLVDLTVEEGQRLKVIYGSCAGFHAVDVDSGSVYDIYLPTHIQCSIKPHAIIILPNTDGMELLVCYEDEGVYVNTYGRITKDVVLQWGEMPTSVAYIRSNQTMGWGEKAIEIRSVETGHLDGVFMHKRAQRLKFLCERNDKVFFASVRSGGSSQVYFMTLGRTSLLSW
# [13] = target: cAMP-dependent protein kinase catalytic subunit alpha (Homo sapiens, UniProt P17612); assay type: functional
# [14] = target: Dual specificity protein kinase CLK4 (Homo sapiens, UniProt Q9HAZ1); assay type: functional
# [15] = target: Protein kinase C gamma type (Homo sapiens, UniProt P05129); assay type: functional
# Ephrin type-A receptor 2 = Ephrin type-A receptor 2 (Homo sapiens, UniProt P29317); assay type: functional;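 further: EPHA2 tested as one member of a kinome-wide kinase panel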
# [16] = target: Protein kinase C zeta type (Homo sapiens, UniProt Q05513); assay type: functional;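 further: measured as one member of a broad kinase profiling panel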
# [17] = target: Serine/threonine-protein kinase PAK 4 (Homo sapiens, UniProt O96013); assay type: functional;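 further: value obtained within a kinome profiling panel in which PAK4 was one of the panel members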
# [18] = target: Ribosomal protein S6 kinase beta-1 (Homo sapiens, UniProt P23443); assay type: functional;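 further: measured as one member of a kinome-wide profiling panel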
# Aurora kinase A = Aurora kinase A (Homo sapiens, UniProt O14965); assay type: functional;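 further: value from the Navigating the Kinome kinase panel profiling, panel entry STK6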
# [19] = target: RAC-alpha serine/threonine-protein kinase (Homo sapiens, UniProt P31749); assay type: functional;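 further: AKT1 affinity measured as one member of a kinome-wide kinase profiling panel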
# [20] = target: Protein kinase C delta type (Homo sapiens, UniProt Q05655); assay type: functional
# [21] = target: Ribosomal protein S6 kinase alpha-3 (Homo sapiens, UniProt P51812); assay type: functional;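 further: measured within a kinome-wide profiling panel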
# [22] = target: Casein kinase II subunit alpha (Homo sapiens, UniProt P68400); assay type: functional
# [23] = target: MAP/microtubule affinity-regulating kinase 3 (Homo sapiens, UniProt P27448); assay type: functional;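 further: MARK3 affinity measured as one member of a kinome panel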
# [24] = target: Serine/threonine-protein kinase Chk1 (Homo sapiens, UniProt O14757); assay type: functional;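 further: measured as one member of a kinome-wide kinase profiling panel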
# [25] = target: Serine/threonine-protein kinase PLK1 (Homo sapiens, UniProt P53350); assay type: functional;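 further: PLK1 measured as one member of a kinome-wide profiling panel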
# [26] = target: MAP kinase-activated protein kinase 2 (Homo sapiens, UniProt P49137); assay type: functional;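 further: measured as one member of a kinome-wide kinase panel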
# [27] = target: RAC-gamma serine/threonine-protein kinase (Homo sapiens, UniProt Q9Y243); assay type: functional
# [28] = target: Serine/threonine-protein kinase PLK3 (Homo sapiens, UniProt Q9H4B4); assay type: functional
# [29] = target: Serine/threonine-protein kinase MRCK alpha (Homo sapiens, UniProt Q5VT25); assay type: functional
# [30] = target: Fibroblast growth factor receptor 1 (Homo sapiens, UniProt P11362); assay type: functional
# [31] = target: Cyclin-dependent kinase 1 (Homo sapiens, UniProt P06493); assay type: functional;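 further: Kinome-wide panel profiling, with the target listed as panel member CDC2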
# [32] = target: 5'-AMP-activated protein kinase catalytic subunit alpha-1 (Homo sapiens, UniProt Q13131); assay type: functional
# [33] = target: Serine/threonine-protein kinase Chk2 (Homo sapiens, UniProt O96017); assay type: functional;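 further: CHEK2 entry within a kinome-wide screening panel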
# [34] = target: Insulin-like growth factor 1 receptor (Homo sapiens, UniProt P08069); test: Navigating the Kinome. Panel member name: IGF1R; assay type: functional
# Sequence of Insulin-like growth factor 1 receptor (P08069 31-736 limits assumed): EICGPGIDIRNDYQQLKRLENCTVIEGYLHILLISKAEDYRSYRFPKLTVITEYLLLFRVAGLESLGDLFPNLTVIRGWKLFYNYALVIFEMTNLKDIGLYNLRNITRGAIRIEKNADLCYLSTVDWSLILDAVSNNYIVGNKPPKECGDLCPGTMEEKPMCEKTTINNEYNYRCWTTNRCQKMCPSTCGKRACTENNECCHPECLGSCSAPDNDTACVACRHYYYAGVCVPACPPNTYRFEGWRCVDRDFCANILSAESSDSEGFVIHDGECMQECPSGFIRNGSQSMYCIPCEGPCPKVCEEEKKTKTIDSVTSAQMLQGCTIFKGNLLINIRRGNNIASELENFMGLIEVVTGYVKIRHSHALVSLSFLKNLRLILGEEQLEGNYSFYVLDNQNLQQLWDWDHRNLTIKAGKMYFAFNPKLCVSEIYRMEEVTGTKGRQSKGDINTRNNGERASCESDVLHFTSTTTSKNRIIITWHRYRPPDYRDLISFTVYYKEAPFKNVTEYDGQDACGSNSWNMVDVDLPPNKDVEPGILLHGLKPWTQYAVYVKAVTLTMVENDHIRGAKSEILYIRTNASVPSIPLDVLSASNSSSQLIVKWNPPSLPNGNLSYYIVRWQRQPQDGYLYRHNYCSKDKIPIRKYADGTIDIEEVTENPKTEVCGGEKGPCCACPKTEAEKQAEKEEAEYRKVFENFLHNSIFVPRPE
# Sequence of Insulin-like growth factor 1 receptor (P08069 741-1367 limits assumed): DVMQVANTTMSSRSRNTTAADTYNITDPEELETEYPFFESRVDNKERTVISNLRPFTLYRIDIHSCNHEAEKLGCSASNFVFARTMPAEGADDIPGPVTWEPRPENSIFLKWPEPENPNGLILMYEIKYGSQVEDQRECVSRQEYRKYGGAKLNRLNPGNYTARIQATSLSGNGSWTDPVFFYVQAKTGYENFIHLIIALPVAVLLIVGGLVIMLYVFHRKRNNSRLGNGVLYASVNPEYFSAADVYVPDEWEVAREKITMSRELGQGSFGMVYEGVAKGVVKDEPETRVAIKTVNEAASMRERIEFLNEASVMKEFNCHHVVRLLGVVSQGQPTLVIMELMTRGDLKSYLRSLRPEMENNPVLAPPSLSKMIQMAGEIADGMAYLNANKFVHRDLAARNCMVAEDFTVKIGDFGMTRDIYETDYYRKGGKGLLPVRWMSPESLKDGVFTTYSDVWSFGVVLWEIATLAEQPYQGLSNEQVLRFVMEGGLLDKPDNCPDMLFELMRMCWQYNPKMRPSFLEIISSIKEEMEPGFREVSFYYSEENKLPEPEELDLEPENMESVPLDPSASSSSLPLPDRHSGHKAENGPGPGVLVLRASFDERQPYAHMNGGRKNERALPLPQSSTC
# [35] = target: Tyrosine-protein kinase ABL1 (Homo sapiens, UniProt P00519); assay type: functional
# Activin receptor type-1 = Activin receptor type-1 (Homo sapiens, UniProt Q04771); test: Navigating the Kinome. Panel member name: ACVR1; assay type: functional
# Sequence of Activin receptor type-1 (Q04771 whole entry): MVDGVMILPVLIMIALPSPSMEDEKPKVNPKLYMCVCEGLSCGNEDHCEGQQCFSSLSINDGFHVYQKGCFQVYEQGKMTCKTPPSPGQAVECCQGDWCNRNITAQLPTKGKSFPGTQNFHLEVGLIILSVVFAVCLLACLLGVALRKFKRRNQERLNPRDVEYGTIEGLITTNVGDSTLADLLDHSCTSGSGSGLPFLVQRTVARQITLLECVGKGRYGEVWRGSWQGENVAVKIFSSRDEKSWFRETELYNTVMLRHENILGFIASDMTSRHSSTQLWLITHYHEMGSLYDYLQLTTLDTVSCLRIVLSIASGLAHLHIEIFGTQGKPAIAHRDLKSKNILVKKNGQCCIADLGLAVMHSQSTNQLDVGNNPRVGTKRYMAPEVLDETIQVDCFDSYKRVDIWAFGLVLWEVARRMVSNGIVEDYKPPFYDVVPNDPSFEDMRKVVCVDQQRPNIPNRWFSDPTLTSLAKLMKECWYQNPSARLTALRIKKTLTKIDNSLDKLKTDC
smiles,measurement,setting,value
COC(=O)CCC(=O)Nc1sc2c(c1C#N)CCCC2,EC50,[1],14 µM (active)
O=C1NC(=S)NC(=O)C1=Cc1cc2ccccc2[nH]1,IC50,Aspartyl aminopeptidase,1.67 µM (active)
same,EC50,[2],6 µM (active)
same,IC50,Procathepsin L,> 59.6 µM (not active)
NC(=O)c1ccccc1-c1ncc[nH]1,Ki,[3],63.1 µM (active)
same,Ki,[4],79.4 µM (active)
same,Ki,[5],50.1 µM (active)
O=c1cc(-c2cccc(F)c2)[nH]c2c(-c3ccc(F)cc3)cnn12,Ki,[6],2 µM (active)
same,Ki,[7],> 7.94 µM (inactive)
same,Ki,[8],0.126 µM (active)
same,Ki,[9],0.501 µM (active)
same,Ki,[10],0.0631 µM (active)
same,Ki,[11],> 10 µM (inactive)
same,Ki,[12],> 10 µM (inactive)
same,Ki,[13],> 7.94 µM (inactive)
same,Ki,[14],0.158 µM (active)
O=C1NC(=O)C(Nc2ccccc2)=C1Cl,Ki,[6],1 µM (active)
same,Ki,[15],> 20 µM (inactive)
same,Ki,Ephrin type-A receptor 2,> 20 µM (inactive)
same,Ki,[16],> 20 µM (inactive)
same,Ki,[17],> 12.6 µM (inactive)
same,Ki,[18],> 15.8 µM (inactive)
same,Ki,Aurora kinase A,15.8 µM (active)
same,Ki,[19],> 20 µM (inactive)
same,Ki,[7],> 20 µM (inactive)
same,Ki,[8],15.8 µM (active)
same,Ki,[20],> 20 µM (inactive)
same,Ki,[21],> 20 µM (inactive)
same,Ki,[22],> 15.8 µM (inactive)
same,Ki,[23],> 15.8 µM (inactive)
same,Ki,[24],12.6 µM (active)
same,Ki,[25],> 20 µM (inactive)
same,Ki,[26],> 20 µM (inactive)
same,Ki,[27],> 25.1 µM (inactive)
same,Ki,[28],> 20 µM (inactive)
same,Ki,[29],> 25.1 µM (inactive)
same,Ki,[30],> 12.6 µM (inactive)
same,Ki,[13],> 20 µM (inactive)
same,Ki,[31],> 20 µM (inactive)
same,Ki,[32],> 25.1 µM (inactive)
same,Ki,[33],> 25.1 µM (inactive)
CC(C)(C)c1nc2c3ccc(F)cc3c3c(=O)[nH]ccc3c2[nH]1,Ki,[3],> 2.51 µM (inactive)
same,Ki,[34],> 2.51 µM (inactive)
same,Ki,[35],> 2.51 µM (inactive)
same,Ki,Activin receptor type-1,> 3.98 µM (inactive)
